Test results published in patent publication US20220184077A1, “ANTI-VIRAL ACTIVITY OF VPS34 INHIBITORS” (Deciphera Pharmaceuticals, LLC, priority 2020, published 2022).
Like-named read-outs stand apart in the source and are kept apart here.

Experiments:
[1] = system: coronavirus USA_WA1/2020 SARS CoV-2; assay: SARS CoV-2 CPE assay for antiviral activity (Vero E6 host cells, Cell Titer-Glo); assay type: cell-based; conditions: read-out: IC50 for inhibition of SARS CoV-2 mediated cell killing
in vitro [2] = assay type: cell-based; conditions: African green monkey
Description: Compound cytotoxicity (CC50) is assessed in a BSL-2 counter screen as follows: Host cells in media are added in 25 μl aliquots (4000 cells/well) to each well of assay ready plates prepared with test compounds as above. […] DMSO is maintained at a constant concentration for all wells (0.3%) as dictated by the dilution factor of stock test compound concentrations. After incubating plates at 37° C./5% CO2 and 90% humidity for 72 hours, 30 μl Cell Titer-Glo (Promega) is added to each well. Luminescence is read using a BMG PHERAstar plate reader following incubation at room temperature for 10 minutes to measure cell viability.

SARS-CoV-2 = assay: microbe, parasite or virus in culture; assay type: cell-based; conditions: Severe acute respiratory syndrome coronavirus 2, A549-ACE2, 48 h; read-out: IC50 for inhibition of SARS CoV-2 mediated cell killing
in vitro [3] = conditions: human
[4] = Vero C1008, Vero E6 cells, 72 hours, 10-point dose response, high concentration 15 μM

Structure (SMILES)	IC50 [1, 4] [µM]	CC50 at 72 h (in vitro [2]) [µM]	IC50 (SARS-CoV-2) [µM]	CC50 (in vitro [3]) [µM]	IC50 ([1]; Vero C1008, 72 h) [µM]
Cc1nccc(Nc2cc(-c3cc(-c4ccccc4Cl)[nH]c(=O)c3)ccn2)n1 [Compound 2]	< 0.02	0.482	< 0.02	0.159	–
Cc1nccc(Nc2cc(-c3cc(-c4ccccc4C(F)(F)F)n(C)c(=O)c3)ccn2)n1 [Compound 3]	–	1960	< 0.02	1370	0.036
CCS(=O)(=O)N1CCN(c2cc(-c3ccnc(Nc4ccnc(C)n4)c3)cc(=O)[nH]2)C(C(F)(F)F)C1 (stereo not shown) [Compound 4]	–	2760	0.035	0.557	0.109
Cc1nccc(Nc2cc(-c3cc(-c4cccnc4C(F)(F)F)[nH]c(=O)c3)ccn2)n1 [Compound 1]	0.12	> 30	0.059	2	–
